Measurements: ChEMBL document CHEMBL1201862, “PubChem BioAssay data set” (2004)
Calls of active or inactive are those of the source.

Legend:
[1] = Luminescence Cell-Based Dose Response to Identify Activators of 5'UTR Stem-Loop Driven Prion Protein mRNA Translation in H4-C Neuroglioblastoma Cells. [Related pubchem assays: 1829 (Project Summary), 1814 (Primary HTS)]; assay type: functional
[2] = Luminescence Cell-Based Dose Response HTS to Identify Activators of Luciferase Translation or Activity in H4 […] Cells. [Related pubchem assays: 1829 (Project Summary), 1814 (Primary HTS)]; assay type: functional
[3] = system: H4; assay: Luminescence Cell-Based Dose Response HTS to Identify Activators of 5'UTR Stem-Loop Driven Prion Protein mRNA Translation in H4 Neuroglioblastoma Cells. [Related pubchem assays: 1829 (Project Summary), 1814 (Primary HTS)]; assay type: functional; details: Homo sapiens
[4] = Luminescence Cell-Based Dose Response to Identify Activators of Luciferase Translation or Activity in H4-C Neuroglioblastoma Cells. [Related pubchem assays: 1829 (Project Summary), 1814 (Primary HTS)]; assay type: functional
[5] = Luminescence Cell-Based Dose Confirmation to Identify Activators of 5'UTR Stem-Loop Driven Alpha-Synuclein mRNA Translation in H4 Neuroglioblastoma Cells. [Related pubchem assays: 1829 (Project Summary), 1814 (Primary HTS)]; assay type: functional
[6] = THP-1 cell cytotoxicity, dose response, cytotoxicity control for Vif-APOBEC3G degradation inhibitor project, THP-1 cells (AID 1117359); assay type: functional; details: Human immunodeficiency virus 1, THP-1
[7] = molecular target: Cytochrome P450 2C9 (Homo sapiens, UniProt P11712); details: Potency
[8] = enhancers of respiration in Yfh1-depleted yeast, dose response, Friedreich's ataxia, plus single-dose screen (AID 1465); assay type: functional;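 also: yeast depleted of Yfh1p frataxin homolog grown on glycerol needing respiration; WST-1 tetrazolium dye reduction as measure of cellular dehydrogenase metabolic activity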
[9] = molecular target: Troponin, cardiac muscle (Homo sapiens, UniProt P19429+P45379+P63316); assay: Fluorescence-based biochemical high throughput dose response assay for activators of the calcium sensitivity of cardiac Regulated Thin Filaments (RTF). [Related pubchem assays (depositor defined):AID493008, AID493018, AID504382, AID504383]; assay type: protein-complex assay
[10] = molecular target: Eukaryotic translation initiation factor 4H (Homo sapiens, UniProt Q15056); assay: human eIF4H binding inhibitors, primary screen, translation initiation inhibitor project, biochemical, uHTS, fluorescence polarization (AID 2012)
[11] = molecular target: Polyadenylate-binding protein 1 (Homo sapiens, UniProt P11940); assay: PABP poly(A) RNA binding inhibitors, primary screen, biochemical, fluorescence polarization, uHTS (AID 2014)
[12] = molecular target: Cytochrome P450 2D6 (Homo sapiens, UniProt P10635);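 also: CYP2D6 member of a cytochrome P450 panel assay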
[13] = system: HeLa; assay: Cytotoxicity counterscreen assay for transcriptional activators of heat shock protein 70 (Hsp70). [Related pubchem assays: 1203, 1252 ]; assay type: functional; details: Homo sapiens;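 also: cells exposed to compound for 16 hours before readout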
[14] = Artemis endonuclease inhibitor potency, dose response, biochemical, fluorescence intensity (AID 720701); assay type: functional;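 also: Artemis endonuclease enzyme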
[15] = molecular target: T1, Alkaline phosphatase, tissue-nonspecific isozyme (Homo sapiens, UniProt P05186)
T1 sequence (P05186 whole entry): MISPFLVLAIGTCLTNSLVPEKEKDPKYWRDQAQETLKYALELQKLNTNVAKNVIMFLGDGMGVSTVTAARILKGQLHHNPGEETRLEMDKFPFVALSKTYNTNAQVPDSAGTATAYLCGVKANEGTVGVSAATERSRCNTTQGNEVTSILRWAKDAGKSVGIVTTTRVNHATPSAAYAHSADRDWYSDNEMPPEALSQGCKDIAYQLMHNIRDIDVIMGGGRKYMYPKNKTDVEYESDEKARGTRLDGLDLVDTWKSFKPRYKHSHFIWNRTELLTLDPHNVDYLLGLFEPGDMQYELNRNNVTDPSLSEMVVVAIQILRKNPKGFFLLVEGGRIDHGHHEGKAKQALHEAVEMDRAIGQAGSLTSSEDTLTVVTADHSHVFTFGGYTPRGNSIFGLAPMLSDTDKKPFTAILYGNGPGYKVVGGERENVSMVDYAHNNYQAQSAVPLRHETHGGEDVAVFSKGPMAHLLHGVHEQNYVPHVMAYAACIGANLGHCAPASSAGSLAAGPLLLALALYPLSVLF

[16] = molecular target: Cytochrome P450 2C19 (Homo sapiens, UniProt P33261); assay: Cytochrome panel assay with activity outcomes. Panel member name: p450-cyp2c19 Compounds with AC50 equal or less than 10 uM are considered active; assay type: functional; details: read-out: AC50
Sequence of Cytochrome P450 2C19 (P33261 whole entry): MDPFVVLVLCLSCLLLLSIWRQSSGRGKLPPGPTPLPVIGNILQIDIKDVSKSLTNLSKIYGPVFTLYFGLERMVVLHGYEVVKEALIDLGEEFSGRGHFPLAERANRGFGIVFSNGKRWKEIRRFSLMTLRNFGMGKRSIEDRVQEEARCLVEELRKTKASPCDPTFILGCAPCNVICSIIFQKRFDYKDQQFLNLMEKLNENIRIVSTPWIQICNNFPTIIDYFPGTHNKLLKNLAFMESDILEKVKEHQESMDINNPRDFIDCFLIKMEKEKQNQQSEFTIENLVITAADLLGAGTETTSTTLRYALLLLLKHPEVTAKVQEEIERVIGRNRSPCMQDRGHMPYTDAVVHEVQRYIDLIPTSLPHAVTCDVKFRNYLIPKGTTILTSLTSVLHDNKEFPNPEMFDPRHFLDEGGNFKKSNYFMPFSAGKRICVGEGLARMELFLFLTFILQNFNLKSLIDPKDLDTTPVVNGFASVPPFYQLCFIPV

Sequence of Cytochrome P450 2C9 (P11712 whole entry): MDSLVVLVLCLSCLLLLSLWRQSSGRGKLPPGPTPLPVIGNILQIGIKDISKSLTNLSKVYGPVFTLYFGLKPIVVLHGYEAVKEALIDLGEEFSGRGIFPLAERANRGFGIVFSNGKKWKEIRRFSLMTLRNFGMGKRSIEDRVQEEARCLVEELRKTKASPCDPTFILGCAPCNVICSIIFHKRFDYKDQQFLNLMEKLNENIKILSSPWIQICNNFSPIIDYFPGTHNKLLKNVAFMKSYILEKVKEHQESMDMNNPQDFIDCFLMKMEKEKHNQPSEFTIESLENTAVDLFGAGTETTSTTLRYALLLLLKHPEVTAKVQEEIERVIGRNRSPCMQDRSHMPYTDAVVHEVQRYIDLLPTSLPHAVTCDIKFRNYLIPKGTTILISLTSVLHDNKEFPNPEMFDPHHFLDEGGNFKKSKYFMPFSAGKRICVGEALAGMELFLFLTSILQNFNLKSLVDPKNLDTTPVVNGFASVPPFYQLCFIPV
Sequence of Polyadenylate-binding protein 1 (P11940 whole entry): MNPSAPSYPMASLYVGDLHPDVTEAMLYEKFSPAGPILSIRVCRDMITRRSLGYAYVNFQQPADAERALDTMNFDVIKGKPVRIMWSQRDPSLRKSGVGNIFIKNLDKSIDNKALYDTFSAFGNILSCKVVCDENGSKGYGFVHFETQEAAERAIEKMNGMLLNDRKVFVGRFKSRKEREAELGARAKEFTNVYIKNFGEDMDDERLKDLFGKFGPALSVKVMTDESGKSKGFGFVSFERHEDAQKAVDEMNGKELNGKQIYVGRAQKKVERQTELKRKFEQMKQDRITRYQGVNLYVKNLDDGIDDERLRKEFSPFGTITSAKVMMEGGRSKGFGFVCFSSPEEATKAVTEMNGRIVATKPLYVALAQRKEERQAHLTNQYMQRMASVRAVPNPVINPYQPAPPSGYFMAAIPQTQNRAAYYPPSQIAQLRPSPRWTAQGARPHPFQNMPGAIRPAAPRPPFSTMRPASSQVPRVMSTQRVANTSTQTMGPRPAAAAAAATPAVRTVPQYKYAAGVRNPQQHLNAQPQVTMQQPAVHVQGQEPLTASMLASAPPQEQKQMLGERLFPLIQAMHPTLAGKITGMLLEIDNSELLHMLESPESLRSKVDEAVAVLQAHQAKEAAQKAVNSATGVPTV
Sequence of Cytochrome P450 2D6 (P10635 whole entry): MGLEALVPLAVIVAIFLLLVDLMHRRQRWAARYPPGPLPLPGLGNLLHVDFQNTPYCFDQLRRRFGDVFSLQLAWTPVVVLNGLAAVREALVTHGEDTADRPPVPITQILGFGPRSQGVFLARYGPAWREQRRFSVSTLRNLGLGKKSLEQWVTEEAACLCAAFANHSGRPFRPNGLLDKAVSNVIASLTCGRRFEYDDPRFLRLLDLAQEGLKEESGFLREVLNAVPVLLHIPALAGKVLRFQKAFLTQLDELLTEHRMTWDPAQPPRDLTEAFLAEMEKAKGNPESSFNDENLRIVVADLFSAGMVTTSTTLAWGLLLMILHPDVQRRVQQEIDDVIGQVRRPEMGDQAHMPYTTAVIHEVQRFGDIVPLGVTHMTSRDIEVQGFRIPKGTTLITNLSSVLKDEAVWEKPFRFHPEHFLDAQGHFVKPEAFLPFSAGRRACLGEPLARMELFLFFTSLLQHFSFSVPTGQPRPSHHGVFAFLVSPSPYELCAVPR

For Cc1ccc(-n2c(C)cc(/C=C3\SC(=O)NC3=O)c2C)cc1, the EC50 [1] was 0.512 µM (active), the EC50 [2] was < 0.1 µM (inconclusive) and the EC50 [3] was 0.749 µM (active). The EC50 [4] was 0.401 µM (active) and the EC50 [5] was 0.344 µM (active).

With COc1ccc(-c2[nH]c3ccccc3c2SCCN)cc1 the CC50 [6] was 28.3 µM (active).

For CC(C)C[C@H]1C(=O)N2CCC[C@@H]2[C@]2(O)O[C@](NC(=O)[C@H]3C=C4c5cccc6[nH]cc(c56)C[C@H]4N(C)C3)(C(C)C)C(=O)N12, the AC50 [7] was 12.6 µM (inconclusive).

With CCCN1C=CC(=CC=C(C#N)C#N)C=C1 the EC50 [8] was > 100 µM (active) and the EC50 [9] was 7.62 µM (active).

For CCOc1ccc(NC(=O)C2CCCN2C(=O)Oc2ccccc2)cc1 (stereo not drawn), the IC50 [10] was > 100 µM (inactive) and the IC50 [11] was 1.85 µM (active).

In the case of CN1CCc2cc3c(cc2[C@@H]1[C@@H]1OC(=O)c2c1ccc1c2OCO1)OCO3, the AC50 [7] is reported as 39.8 µM (inconclusive) and the AC50 [12] is reported as 12.6 µM (inconclusive).

With N#C/C(=C\c1ccc(N2CCOCC2)o1)C(=O)NCCc1ccccc1 the EC50 [8] was > 100 µM (active).

With Cc1c(O)ccc(C(=O)CN2CCN(Cc3ccc4c(c3)OCO4)CC2)c1O the CC50 [13] was > 99 µM (not active).

For COc1ccc(C2CC(c3ccc(Cl)cc3)Nc3nc(NC(=O)c4ccco4)nn32)cc1 (stereo not drawn), the IC50 [14] was 11.8 µM (active).

For CCNC(=S)NNC(=O)c1cc(CC(C)C)nc2ccccc12, the EC50 [15] was 63 µM (not active) and the AC50 [16] was 0.178 µM (inconclusive).
